In patent publication US20140162875A1, “N-Thio-Anthranilamide Compounds and Their Use as Pesticides” (BASF SE, priority 2011, published 2014):

Columns and labels:
Type in all cases: in vivo
[1] = system: Mediterranean fruitfly (Ceratitis capitata); test: Mediterranean fruitfly microtiter plate insect diet test; settings: 120 h, egg and larval mortality after 5 days, read-out: mortality in comparison with untreated controls
Description: For evaluating control of Mediterranean fruitfly (Ceratitis capitata) the test unit consisted of microtiter plates containing an insect diet and 50-80 C. capitata eggs.
(§1) The compounds were formulated using a solution containing 75% v/v water and 25% v/v DMSO. Different concentrations of formulated compounds were sprayed onto the insect diet at 5 μl, using a custom built micro atomizer, at two replications.
After application, microtiter plates were incubated at about 28±1° C. and about 80±5% relative humidity for 5 days. Egg and larval mortality was then visually assessed.

[2] = system: vetch aphid (Megoura viciae); test: Vetch aphid broad bean leaf disk microtiter test; settings: foliar, 120 h, adult aphids on broad bean leaf disks, 5 days, read-out: mortality in comparison with untreated controls
Description: For evaluating control of vetch aphid (Megoura viciae) through contact or systemic means the test unit consisted of 24-well-microtiter plates containing broad bean leaf disks.
The compounds were formulated using a solution containing 75% v/v water and 25% v/v DMSO. Different concentrations of formulated compounds were sprayed onto the leaf disks at 2.5 μl, using a custom built micro atomizer, at two replications.
After application, the leaf disks were air-dried and 5-8 adult aphids placed on the leaf disks inside the microtiter plate wells. The aphids were then allowed to suck on the treated leaf disks and incubated at about 23±1° C. and about 50±5% relative humidity for 5 days. Aphid mortality and fecundity was then visually assessed.

[3] = system: Diamond Back Moth (Plutella Xylostella); test: Diamond back moth cabbage leaf dip test; settings: foliar, dipped cabbage leaves, 3rd instar larvae, 72 hours after treatment, read-out: mortality in comparison with untreated controls
Description: (§2) The active compound was dissolved at the desired concentration in a mixture of 1:1 (vol:vol) distilled water:acetone. Surfactant (Alkamuls® EL 620) is added at a rate of 0.1% (vol/vol). The test solution was prepared at the day of use.
Leaves of cabbage were dipped in test solution and air-dried. Treated leaves were placed in petri dishes lined with moist filter paper and inoculated with ten 3rd instar larvae. Mortality was recorded 72 hours after treatment. Feeding damages were also recorded using a scale of 0-100%.

[4] = system: Tobacco Budworm (Heliothis Virescens); test: Tobacco budworm cotton plant spray test; settings: 96 h, larvae on sprayed cotton plants, 4 days after treatment, read-out: mortality in comparison with untreated controls
Description: (§3) The active compounds were formulated in cyclohexanone as a 10,000 ppm solution supplied in tubes. The tubes were inserted into an automated electrostatic sprayer equipped with an atomizing nozzle and they served as stock solutions for which lower dilutions were made in 50% acetone:50% water (v/v). A nonionic surfactant (Kinetic®) was included in the solution at a volume of 0.01% (v/v).
Cotton plants were grown 2 plants to a pot and selected for treatment at the cotyledon stage. Test solutions were sprayed onto the foliage by an automated electrostatic plant sprayer equipped with an atomizing spray nozzle. The plants were dried in the sprayer fume hood and then removed from the sprayer. Each pot was placed into perforated plastic bags with a zip closure. About 10 to 11 budworm larvae were placed into the bag and the bags zipped closed. Test plants were maintained in a growth room at about 25° C. and about 20-40% relative humidity for 4 days, avoiding direct exposure to fluorescent light (24 hour photoperiod) to prevent trapping of heat inside the bags. Mortality and reduced feeding were assessed 4 days after treatment, compared to untreated control plants.

[5] = system: Cowpea Aphid (Aphis Craccivora); test: Cowpea aphid spray test on potted cowpea plants; settings: sprayed cowpea plants, assessed after 72 hours, read-out: mortality in comparison with untreated controls
Description: as §2
Potted cowpea plants were colonized with approximately 50-100 aphids of various stages by manually transferring a leaf tissue cut from infested plant 24 hours before application. Plants were sprayed after the pest population has been recorded. Treated plants were maintained on light carts at about 28° C. Percent mortality was assessed after 72 hours.

[6] = system: Colorado Potato Beetle (Leptinotarsa Decemlineata); test: Colorado potato beetle eggplant foliage spray test; settings: foliar, 96 h, beetle larvae on sprayed eggplant foliage, 4 days after treatment, read-out: mortality in comparison with untreated controls
Description: as §3
Eggplants were grown 2 plants to a pot and were selected for treatment at the 1st true leaf stage. Test solutions were sprayed onto the foliage by an automated electrostatic plant sprayer equipped with an atomizing spray nozzle. The plants were dried in the sprayer fume hood and then removed from the sprayer. The treated foliage was then cut and removed from the pot and placed in a Petri dish lined with moistened filter paper. Five beetle larvae were introduced into each Petri dish and the dish was covered by a Petri dish lid. Petri dishes were maintained in a growth room at about 25° C. and about 20-40% relative humidity for 4 days, avoiding direct exposure to fluorescent light (24 hour photoperiod) to prevent trapping of heat inside the dishes. Mortality and reduced feeding were assessed 4 days after treatment, compared to untreated control plants.

[7] = system: Southern Armyworm (Spodoptera Eridania); test: Southern armyworm lima bean plant spray test; settings: 96 h, larvae on sprayed lima bean plants, 4 days after treatment, read-out: mortality in comparison with untreated controls
Description: as §3
Lima bean plants (variety Sieva) were grown 2 plants to a pot and selected for treatment at the 1st true leaf stage. Test solutions were sprayed onto the foliage by an automated electrostatic plant sprayer equipped with an atomizing spray nozzle. The plants were dried in the sprayer fume hood and then removed from the sprayer. Each pot was placed into perforated plastic bags with a zip closure. About 10 to 11 armyworm larvae were placed into the bag and the bags zipped closed. Test plants were maintained in a growth room at about 25° C. and about 20-40% relative humidity for 4 days, avoiding direct exposure to fluorescent light (24 hour photoperiod) to prevent trapping of heat inside the bags. Mortality and reduced feeding were assessed 4 days after treatment, compared to untreated control plants.

[8] = system: Orchid Thrips (Dichromothrips Corbetti); test: Orchid thrips floral-immersion test; settings: adult thrips on dipped orchid flowers, 72 hours after treatment, read-out: mortality in comparison with untreated controls
Description: Dichromothrips corbetti adults used for bioassay are obtained from a colony maintained continuously under laboratory conditions. For testing purposes, the test compound was diluted in a 1:1 mixture of acetone:water (vol:vol), plus 0.01% vol/vol Alkamuls® EL 620 surfactant.
Thrips potency of each compound was evaluated by using a floral-immersion technique. Plastic petri dishes were used as test arenas. All petals of individual, intact orchid flowers are dipped into treatment solution and allowed to dry. Treated flowers were placed into individual petri dishes along with −about 20 adult thrips. The petri dishes were then covered with lids. All test arenas were held under continuous light and a temperature of about 28° C. for duration of the assay. After 3 days, the numbers of live thrips were counted on each flower, and along inner walls of each petri dish. The percent mortality was recorded 72 hours after treatment.

[9] = system: boll weevil (Anthonomus grandis); test: Boll weevil microtiter plate insect diet test; settings: 120 h, egg and larval mortality after 5 days, read-out: mortality in comparison with untreated controls
Description: For evaluating control of boll weevil (Anthonomus grandis) the test unit consisted of 96-well-microtiter plates containing an insect diet and 5-10 A. grandis eggs.
as §1
After application, microtiter plates were incubated at about 25±1° C. and about 75±5% relative humidity for 5 days. Egg and larval mortality was then visually assessed.

[10] = system: Silverleaf Whitefly (Bemisia Argentifolii); test: Silverleaf whitefly cotton plant spray test; settings: 300 ppm; whitefly adults on sprayed cotton plants; 3 days after treatment
Text: as §3
Cotton plants at the cotyledon stage (one plant per pot) were sprayed by an automated electrostatic plant sprayer equipped with an atomizing spray nozzle. The plants were dried in the sprayer fume hood and then removed from the sprayer. Each pot was placed into a plastic cup and about 10 to 12 whitefly adults (approximately 3-5 days old) were introduced. The insects were collected using an aspirator and a nontoxic Tygon® tubing connected to a barrier pipette tip. The tip, containing the collected insects, was then gently inserted into the soil containing the treated plant, allowing insects to crawl out of the tip to reach the foliage for feeding. Cups were covered with a reusable screened lid. Test plants were maintained in a growth room at about 25° C. and about 20-40% relative humidity for 3 days, avoiding direct exposure to fluorescent light (24 hour photoperiod) to prevent trapping of heat inside the cup. Mortality was assessed 3 days after treatment, compared to untreated control plants.

`Cc1cc(Cl)cc(C(=O)/N=S2/CCSC2)c1NC(=O)c1cnn(CC(F)(F)F)c1-c1ncccc1Cl` (stereo not shown) [Compound 1-1, N-[4-chloro-2-((Z)-1,3-dithiolan-1-ylidenecarbamoyl)-6-methyl-phenyl]-5-(3-chloro-2-pyridyl)-1-(2,2,2-trifluoroethyl)pyrazole-4-carboxamide] gave a mortality at 2500 ppm [1] of at least 75%, a mortality at 2500 ppm [2] of at least 75% and a mortality at 300 ppm [3] of at least 75%. For the same compound, the mortality at 2500 ppm [4] was at least 75%, the mortality at 300 ppm [5] was at least 75% and the mortality at 300 ppm [6] was at least 75%. It also gave a mortality at 300 ppm [7] of at least 75%, a mortality at 300 ppm [8] of at least 75% and a mortality at 2500 ppm [9] of at least 75%.
For `Cc1cc(Cl)cc(C(=O)N=S(C(C)C)C(C)C)c1NC(=O)c1cnn(CC(F)(F)F)c1-c1ncccc1Cl` [Compound 1-2], the “mortality in comparison with untreated controls” value [10] was “at least 75%”.
